Test results as given in publication PMC7397056, “Design, Facile Synthesis and Characterization of Dichloro Substituted Chalcones and Dihydropyrazole Derivatives for Their Antifungal, Antitubercular and Antiproliferative Activities” (Molecules, 2020).
Values after ≈ are worked out from the molar mass of the structure shown.

Experiments:
[1] = system: prostate cancer cell lines (DU-145); experiment: Antiproliferative activity, MTT assay; type: cell-based; settings: Homo sapiens, 48 h, mean ± SD (n = 3)
Experimental: (§1) The antiproliferative activity of the compounds was determined their IC50 values. Methotrexate (Mtx; positive control) was used as a reference standard for comparing the antiproliferative activity of the target compounds. The MTT (3-(4,5-dimethylthiazol-2-yl)-2,5-diphenyl tetrazolium bromide) assay was based on the reduction of the soluble MTT (0.5 mg mL^−1, 100 µL) into a blue-purple formazan product, mainly by the activity of mitochondrial reductase enzymes inside the living cells. The prostate cancer cell lines, DU-145 cells, were cultured in Dulbecco’s Modified Eagle Medium (DMEM) media at 37 °C and humidified at 5% CO2. Stock solutions of the test compounds (17–46) were prepared in 0.1% DMSO followed by dilution with sterile water to obtain the desired final concentrations. Briefly, the cells were placed on 96-well plates at 100 µL total volume with the density of 1 × 10^4 cells per well and were allowed to adhere for 24 h. Then the medium was replaced with fresh media containing different dilutions of the test compounds and incubated for additional 48 h at 37 °C in DMEM with 10% fetal bovine serum (FBS) medium. Subsequently, the medium was replaced with 90 μL of fresh DMEM without FBS. The above wells were treated with 10 μL of MTT reagent (5 mg/mL of stock solution in DMEM without FBS) and incubated at 37 °C for 3–4 h. The formed blue formazan crystals were dissolved in 200 μL of DMSO. The optical density was determined at 570 nm using a micro plate reader. The assay was performed in triplicate for three independent experiments. The same experimentation was also done to confirm that the DMSO (negative control) had no effect in the study. The results had good reproducibility between replicate wells with standard errors below 10%. The antiproliferative activity results measured as IC50 values in µg/mL were converted and expressed in µM. Additionally, the cytotoxic activity of the compounds was also measured employing the same protocol discussed above to assess their toxicity on normal human cell lines (L02).

[2] = Cytotoxic activity on normal cells, MTT assay; type: cell-based
Experimental: as §1

[3] = system: normal human cell lines (L02); experiment: Cytotoxic activity on normal cells, MTT assay; type: cell-based; settings: normal human cell line L02
Experimental: as §1

[4] = system: Mycobacterium tuberculosis H37Rv; experiment: Antitubercular activity, broth dilution assay (MIC); type: cell-based; settings: for MIC: Middlebrook 7H9 broth, 37 °C, 21 days
[5] = system: Aspergillus niger (ATCC-6275); experiment: Antifungal activity, serial tube dilution method (MIC); settings: for MIC: Aspergillus niger, ATCC6275, 18 h, read-out: Antifungal activity MIC, A. niger, serial tube dilution, 37 °C, 18 h, average of three
[6] = system: Candida tropicalis (ATCC-1369); experiment: as above; settings: for MIC: Candida tropicalis, ATCC1369, 18 h, read-out: Antifungal activity MIC, C. tropicalis, serial tube dilution, 37 °C, 18 h, average of three
[7] = L02 cells (normal human cell line)
[8] = Mycobacterium tuberculosis, H37RV, 504 h
[9] = ratio of MICs vs pyrazinamide (MIC 25.34 µM)

Row | Structure (SMILES) | IC50 [1] [µM] | IC50 at 48 h [2, 7] [µg/mL] | Cytotoxic activity IC50, L02 [3] [µg/mL] | MIC [4, 8] [µM] | fold better activity than the standard pyrazinamide [4, 9] | melting point [°C] | MIC [5] [µM] | fold improvement in activity over compound 17 (CH3 replaced with CF3), Aspergillus niger ([5]; comparator compound 17) [fold] | MIC [6] [µM] | fold improvement in activity over compound 17 (CH3 replaced with CF3), Candida tropicalis ([6]; comparator compound 17) [fold] | fold more antitubercular activity than the chalcones 14 and 16 ([4]; 29 vs 14, 31 vs 16) [fold] | IC50 at 48 h ([2]; normal human cell line L02) [µg/mL] | fold better activity in comparison to fluconazole, Aspergillus niger [5] [fold] | fold better activity in comparison to fluconazole, Candida tropicalis [6] [fold] | fold improvement in antitubercular activity compared to compound 20 ([4]; comparator compound 20) [fold] | fold improvement in antitubercular activity compared to compound 21 ([4]; comparator compound 21) [fold] | MIC [4] [µM] | fold less activity than pyrazinamide [4, 9] [fold] | Antifungal activity MIC, A. niger ([5]; serial tube dilution, 37 °C, 18 h, average of three) [µM]
1 | CN(Cc1cnc2nc(N)nc(N)c2n1)c1ccc(C(=O)N[C@@H](CCC(=O)O)C(=O)O)cc1 [Methotrexate, reference compound] | 11 ± 1 | > 75 | >75 | – | – | – | – | – | – | – | – | – | – | – | – | – | – | – | –
2 | FC(F)(F)c1ccc(C2CC(c3ccc(Cl)c(Cl)c3)=NN2c2ccccc2)cc1 (stereo not shown) [Compound 24, 3-(3,4-dichlorophenyl)-1-phenyl-5-(4-trifluoromethylphenyl)-4,5-dihydro-1H-pyrazole] | 257 ± 2 | > 75 | – | 3.67 (≈ 1.6 µg/mL) | sevenfold | 125 | 9.18 (≈ 4 µg/mL) | 4.6 | 9.18 (≈ 4 µg/mL) | 4.6 | – | – | – | – | – | – | – | – | –
3 | Clc1ccc(C2=NN(c3ccccc3)C(c3ccco3)C2)cc1Cl (stereo not shown) [Compound 29, 3-(3,4-dichlorophenyl)-1-phenyl-5-(furan-2-yl)-4,5-dihydro-1H-pyrazole] | 162 ± 2 | > 75 | – | 17.5 (≈ 6.25 µg/mL) | – | 200 | 11.2 (≈ 4 µg/mL) | – | 11.2 (≈ 4 µg/mL) | – | 2.6 | – | – | – | – | – | – | – | –
4 | O=C(/C=C/c1cccs1)c1ccc(Cl)c(Cl)c1 [Compound 16, (E)-1-(3,4-dichlorophenyl)-3-(thiophen-2-yl)prop-2-en-1-one] | 17 ± 1 | – | – | 22.1 (≈ 6.25 µg/mL) | – | 194 | 14.1 (≈ 4 µg/mL) | – | 14.1 (≈ 4 µg/mL) | – | – | > 50 | 1.84 | 1.35 | – | – | – | – | –
5 | Clc1ccc(C2=NN(c3ccccc3)C(c3ccncc3)C2)cc1Cl (stereo not shown) [Compound 28, 3-(3,4-dichlorophenyl)-1-phenyl-5-(pyridin-4-yl)-4,5-dihydro-1H-pyrazole] | 173 ± 2 | > 75 | – | 67.9 (≈ 25 µg/mL) | – | 214 | 21.7 (≈ 8 µg/mL) | – | 21.7 (≈ 8 µg/mL) | – | – | – | – | – | – | – | – | – | –
6 | Clc1ccc(C2=NN(c3ccccc3)C(c3ccccn3)C2)cc1Cl (stereo not shown) [Compound 26, 3-(3,4-dichlorophenyl)-1-phenyl-5-(pyridin-2-yl)-4,5-dihydro-1H-pyrazole] | 271 ± 2 | > 75 | – | 67.9 (≈ 25 µg/mL) | – | 191 | 21.7 (≈ 8 µg/mL) | – | 21.7 (≈ 8 µg/mL) | – | – | – | – | – | – | – | – | – | –
7 | Clc1ccc(C2CC(c3ccc(Cl)c(Cl)c3)=NN2c2ccccc2)c(Cl)c1 (stereo not shown) [Compound 23, 3-(3,4-dichlorophenyl)-1-phenyl-5-(2,4-dichlorophenyl)-4,5-dihydro-1H-pyrazole] | 206 ± 2 | > 75 | – | 7.15 (≈ 3.12 µg/mL) | – | 302 | 18.3 (≈ 8 µg/mL) | – | 36.7 (≈ 16 µg/mL) | – | – | – | – | – | 4 | 2 | – | – | –
8 | Clc1ccc(C2CC(c3ccc(Cl)c(Cl)c3)=NN2c2ccccc2)cc1 (stereo not shown) [Compound 20, 3-(3,4-dichlorophenyl)-1-phenyl-5-(4-chlorophenyl)-4,5-dihydro-1H-pyrazole] | 149 ± 2 | > 75 | – | – | – | 261 | 28.8 (≈ 11.6 µg/mL) | – | 39.8 (≈ 16 µg/mL) | – | – | – | – | – | – | – | 31.11 (≈ 12.5 µg/mL) | 1.2 | 19.91
9 | O=C(/C=C/c1ccco1)c1ccc(Cl)c(Cl)c1 [Compound 14, (E)-1-(3,4-dichlorophenyl)-3-(furan-2-yl)prop-2-en-1-one] | 206 ± 2 | > 50 | – | 47 (≈ 12.6 µg/mL) | – | 172 | 235 (≈ 62.8 µg/mL) | – | 117 (≈ 31.4 µg/mL) | – | – | – | – | – | – | – | – | – | –
